Reference: patent US9353090B2, “Heterocyclic carboxylic acids as activators of soluble guanylate cyclase” (Boehringer Ingelheim International GmbH, priority 2014, dated 2016)
pEC50: −log10 of the molar value. Values after ≈ are worked out from the molar mass of the structure shown.

What was measured:
[1] = target: human soluble guanylate cyclase alpha 1 and beta 1 subunits (sGC) (Homo sapiens (Human), UniProt Q02108+Q02153); assay: sGC cellular activator assay (cGMP, HTRF), in the presence and absence of 50% human serum; format: cell-based; details: CHO cells stably expressing human sGC alpha 1/beta 1, preincubated with 40 microM ODQ; cGMP by HTRF; Table 2 does not state whether with or without 50% human serum
In short: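 First, CHO-sGC (human α1β1) cells get 1 h ODQ at 40 microM with IBMX and 0.1% BSA. Finally, cGMP is quantified by HTRF and EC50 computed.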

physchem = details: kinetic from dmso stock
[2] = Human liver microsome (HLM) metabolic stability assay; format: in vitro ADME; details: human liver microsomes
In short: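 Remaining parent measured by LC/MS/MS (ESI, MRM) at 5, 15, 30 and 60 min relative to 0 min. Incubation: 1 uM compound, HLMs, NADPH-started, 37° C., 60 min total, single replicate. Slope of ln(% remaining) gives t1/2 = 0.693/slope, then CLint, CLh and % Qh.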

[3] = pH 2.2, aqueous buffer, Solubility (pH 2.2)
[4] = pH 4.5, aqueous buffer, Solubility (pH 4.5)
[5] = pH 6.8, aqueous buffer, Solubility (pH 6.8)

Chain of human soluble guanylate cyclase alpha 1 and beta 1 subunits (sGC) (Q02108 whole entry partner): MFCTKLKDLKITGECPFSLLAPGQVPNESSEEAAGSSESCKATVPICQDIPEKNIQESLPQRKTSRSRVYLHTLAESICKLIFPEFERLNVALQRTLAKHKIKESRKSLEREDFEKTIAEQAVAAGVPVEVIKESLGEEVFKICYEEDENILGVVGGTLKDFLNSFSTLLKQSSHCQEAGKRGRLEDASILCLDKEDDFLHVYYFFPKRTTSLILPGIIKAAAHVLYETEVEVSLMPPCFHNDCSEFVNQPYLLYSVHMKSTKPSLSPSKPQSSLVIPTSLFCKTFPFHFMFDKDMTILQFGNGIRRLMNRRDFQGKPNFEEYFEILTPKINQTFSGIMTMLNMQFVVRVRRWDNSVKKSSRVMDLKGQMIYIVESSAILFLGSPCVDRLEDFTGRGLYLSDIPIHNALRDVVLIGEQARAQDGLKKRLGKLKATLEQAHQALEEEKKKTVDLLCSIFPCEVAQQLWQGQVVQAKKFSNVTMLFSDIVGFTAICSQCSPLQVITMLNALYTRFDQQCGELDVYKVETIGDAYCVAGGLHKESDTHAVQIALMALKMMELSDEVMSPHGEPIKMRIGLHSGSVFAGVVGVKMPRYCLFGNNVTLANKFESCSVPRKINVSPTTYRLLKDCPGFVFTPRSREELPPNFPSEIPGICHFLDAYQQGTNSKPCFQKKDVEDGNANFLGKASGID
Chain of human soluble guanylate cyclase alpha 1 and beta 1 subunits (sGC) (Q02153 whole entry): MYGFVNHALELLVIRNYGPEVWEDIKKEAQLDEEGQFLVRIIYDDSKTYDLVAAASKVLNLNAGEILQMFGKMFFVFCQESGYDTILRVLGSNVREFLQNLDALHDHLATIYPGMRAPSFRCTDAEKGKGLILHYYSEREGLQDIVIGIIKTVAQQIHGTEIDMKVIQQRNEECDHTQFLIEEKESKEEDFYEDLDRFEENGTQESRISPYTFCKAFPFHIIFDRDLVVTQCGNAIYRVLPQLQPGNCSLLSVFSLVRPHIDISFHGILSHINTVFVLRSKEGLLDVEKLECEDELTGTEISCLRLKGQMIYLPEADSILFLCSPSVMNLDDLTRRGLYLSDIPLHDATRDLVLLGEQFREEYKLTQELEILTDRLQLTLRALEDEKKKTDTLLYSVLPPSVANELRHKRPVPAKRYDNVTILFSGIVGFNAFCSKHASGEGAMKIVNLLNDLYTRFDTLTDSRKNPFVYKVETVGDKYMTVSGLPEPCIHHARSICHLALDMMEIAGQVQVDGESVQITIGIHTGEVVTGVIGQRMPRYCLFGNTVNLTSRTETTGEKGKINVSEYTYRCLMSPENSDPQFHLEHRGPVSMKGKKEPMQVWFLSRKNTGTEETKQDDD

Q: With `CO[C@H]1CN(c2nc(-c3cccc(C)c3OCc3cc(C)c4c(c3F)CCN(C3CCOCC3)C4)cs2)CC[C@H]1C(=O)O` [Compound 242] as the compound, how does the pEC50 [1] read?
A: The pEC50 was 8.40.

Q: What about the solubility at 24 h (physchem; [3]) of the same compound?
A: Its solubility at 24 h is 126 µg/mL (≈ 206 µM).

Q: And the solubility at 24 h (physchem; [4])?
A: Its solubility at 24 h is 116 µg/mL (≈ 191 µM).

Q: And the solubility at 24 h (physchem; [5])?
A: Its solubility at 24 h is 115 µg/mL (≈ 189 µM).

Q: And the “Metabolic stability (Qh %), % hepatic blood flow” value (shortened to “Metabolic stability (Qh %)”) [2]?
A: Its value is <24%.

Q: What does the source list for `COC[C@H]1N(c2cccc(-c3cccc(C)c3OCc3cc(F)c4c(c3)CCN(C3CCOCC3)CC4)n2)C[C@@H]2C[C@@]21C(=O)O` [Compound 243]?
A: pEC50 [1]: 8.52; solubility at 24 h (physchem; [3]): 131 µg/mL (≈ 212 µM); solubility at 24 h (physchem; [4]): 124 µg/mL (≈ 201 µM); solubility at 24 h (physchem; [5]): 107 µg/mL (≈ 174 µM); Metabolic stability (Qh %), % hepatic blood flow [2]: <24%

Q: What does the source list for `CO[C@@H]1CN(c2nc(-c3cccc(C)c3OCc3cc(F)c4c(c3)CCN(C3CCOCC3)CC4)cs2)CC[C@@H]1C(=O)O` [Compound 244]?
A: pEC50 [1]: 8.40; solubility at 24 h (physchem; [3]): 118 µg/mL (≈ 193 µM); solubility at 24 h (physchem; [4]): 109 µg/mL (≈ 178 µM); solubility at 24 h (physchem; [5]): 107 µg/mL (≈ 176 µM); Metabolic stability (Qh %), % hepatic blood flow [2]: <24%

Q: What does the source list for `CCO[C@H]1CN(c2nccc(-c3cccc(C)c3OCc3cc4c(c(OC)c3)CN(C3CCOCC3)CC4)n2)CC[C@H]1C(=O)O` [Compound 246]?
A: pEC50 [1]: 7.82; solubility at 24 h (physchem; [3]): 117 µg/mL (≈ 190 µM); solubility at 24 h (physchem; [4]): 114 µg/mL (≈ 184 µM); solubility at 24 h (physchem; [5]): 85.4 µg/mL (≈ 138 µM); Metabolic stability (Qh %), % hepatic blood flow [2]: <24%

Q: With `CCO[C@@H]1CN(c2nccc(-c3cccc(C)c3OCc3cc4c(c(OC)c3)CN(C3CCOCC3)CC4)n2)CC[C@@H]1C(=O)O` [Compound 248] as the compound, how does the pEC50 [1] read?
A: The pEC50 was 6.24.

Q: What about the solubility at 24 h (physchem; [3]) of the same compound?
A: The solubility at 24 h was 91.2 µg/mL (≈ 148 µM).

Q: What about the solubility at 24 h (physchem; [4]) of the same compound?
A: The solubility at 24 h was 88.9 µg/mL (≈ 144 µM).

Q: And the solubility at 24 h (physchem; [5])?
A: Its solubility at 24 h is 88.1 µg/mL (≈ 143 µM).

Q: And the “Metabolic stability (Qh %)” value [2]?
A: The value was <24%.

Q: With `COc1cc(COc2c(C)cccc2-c2cccc(N3CC[C@H](C(=O)O)[C@H](OC)C3)n2)cc2c1CN(C1CCOCC1)CC2` [Compound 249] as the compound, how does the pEC50 [1] read?
A: The pEC50 was 7.89.

Q: What about the solubility at 24 h (physchem; [3]) of the same compound?
A: The solubility at 24 h was 129 µg/mL (≈ 214 µM).

Q: And the solubility at 24 h (physchem; [4])?
A: The solubility at 24 h was 127 µg/mL (≈ 211 µM).

Q: And the solubility at 24 h (physchem; [5])?
A: The solubility at 24 h was 120 µg/mL (≈ 199 µM).

Q: And the “Metabolic stability (Qh %)” value [2]?
A: Its value is <24%.

Q: With `CO[C@H]1CN(c2cccc(-c3cccc(Cl)c3OCc3cc(C)c4c(c3)CCN(C3CCOCC3)C4)n2)CC[C@H]1C(=O)O` [Compound 250] as the compound, how does the pEC50 [1] read?
A: Its pEC50 is 8.15.

Q: And the solubility at 24 h (physchem; [3])?
A: Its solubility at 24 h is 147 µg/mL (≈ 243 µM).

Q: What about the solubility at 24 h (physchem; [4]) of the same compound?
A: Its solubility at 24 h is 82.2 µg/mL (≈ 136 µM).

Q: What about the solubility at 24 h (physchem; [5]) of the same compound?
A: Its solubility at 24 h is 51.9 µg/mL (≈ 85.6 µM).

Q: And the “Metabolic stability (Qh %)” value [2]?
A: The value was 33%.

Q: With `COc1cc(COc2c(Cl)cccc2-c2cccc(N3CC[C@@H](C(=O)O)[C@@H](OC)C3)n2)cc2c1CN(C1CCOCC1)CC2` [Compound 251] as the compound, how does the pEC50 [1] read?
A: The pEC50 was 8.22.

Q: And the solubility at 24 h (physchem; [3])?
A: Its solubility at 24 h is 155 µg/mL (≈ 249 µM).

Q: And the solubility at 24 h (physchem; [4])?
A: Its solubility at 24 h is 90.7 µg/mL (≈ 146 µM).

Q: What about the solubility at 24 h (physchem; [5]) of the same compound?
A: The solubility at 24 h was 66.6 µg/mL (≈ 107 µM).

Q: And the “Metabolic stability (Qh %)” value [2]?
A: Its value is 36%.

Q: What does the source list for `COc1cc(COc2c(C)cccc2-c2csc(N3CC[C@@H](C(=O)O)[C@@H](OC)C3)n2)c(F)c2c1CN(C1CCOCC1)CC2` [Compound 252]?
A: pEC50 [1]: 8.70; solubility at 24 h (physchem; [3]): 133 µg/mL (≈ 212 µM); solubility at 24 h (physchem; [4]): 81.7 µg/mL (≈ 131 µM); solubility at 24 h (physchem; [5]): 72.9 µg/mL (≈ 116 µM); Metabolic stability (Qh %), % hepatic blood flow [2]: <24%

Q: With `CO[C@H]1CN(c2nc(-c3cc(C)ccc3OCc3cc(C)c4c(c3F)CCN(C3CCOCC3)C4)cs2)CC[C@H]1C(=O)O` [Compound 253] as the compound, how does the pEC50 [1] read?
A: Its pEC50 is 8.05.

Q: And the solubility at 24 h (physchem; [3])?
A: The solubility at 24 h was 127 µg/mL (≈ 208 µM).

Q: What about the solubility at 24 h (physchem; [4]) of the same compound?
A: Its solubility at 24 h is 7.7 µg/mL (≈ 12.6 µM).

Q: And the solubility at 24 h (physchem; [5])?
A: Its solubility at 24 h is 1.1 µg/mL (≈ 1.8 µM).

Q: And the “Metabolic stability (Qh %)” value [2]?
A: The value was <24%.

Q: Which results are given for `COc1cc(COc2ccc(C)cc2-c2csc(N3CC[C@@H](C(=O)O)[C@@H](OC)C3)n2)cc2c1CN(C1CCOCC1)CC2` [Compound 254]?
A: pEC50 [1]: 7.85; solubility at 24 h (physchem; [3]): 118 µg/mL (≈ 194 µM); solubility at 24 h (physchem; [4]): 67.5 µg/mL (≈ 111 µM); solubility at 24 h (physchem; [5]): 2.9 µg/mL (≈ 4.77 µM); Metabolic stability (Qh %), % hepatic blood flow [2]: 26%

Q: With `CO[C@@H]1CN(c2cccc(-c3cccc(Cl)c3OCc3cc(C)c4c(c3)CCN(C3CCOCC3)C4)n2)CC[C@@H]1C(=O)O` [Compound 255] as the compound, how does the pEC50 [1] read?
A: Its pEC50 is 8.15.

Q: And the solubility at 24 h (physchem; [3])?
A: Its solubility at 24 h is 170 µg/mL (≈ 280 µM).

Q: What about the solubility at 24 h (physchem; [4]) of the same compound?
A: The solubility at 24 h was 69.5 µg/mL (≈ 115 µM).

Q: And the solubility at 24 h (physchem; [5])?
A: Its solubility at 24 h is 37.7 µg/mL (≈ 62.2 µM).

Q: And the “Metabolic stability (Qh %)” value [2]?
A: The value was 25%.

Q: With `CCO[C@H]1CN(c2cccc(-c3cccc(Cl)c3OCc3cc(C)c4c(c3)CCN(C3CCOCC3)C4)n2)CC[C@H]1C(=O)O` [Compound 256] as the compound, how does the pEC50 [1] read?
A: The pEC50 was 8.52.

Q: What about the solubility at 24 h (physchem; [3]) of the same compound?
A: The solubility at 24 h was 151 µg/mL (≈ 243 µM).

Q: What about the solubility at 24 h (physchem; [4]) of the same compound?
A: The solubility at 24 h was 82 µg/mL (≈ 132 µM).

Q: And the solubility at 24 h (physchem; [5])?
A: Its solubility at 24 h is 57.1 µg/mL (≈ 92.1 µM).

Q: And the “Metabolic stability (Qh %)” value [2]?
A: The value was 89%.

Q: With `CCO[C@H]1CN(c2cccc(-c3cccc(Cl)c3OCc3cc4c(c(OC)c3)CN(C3CCOCC3)CC4)n2)CC[C@H]1C(=O)O` [Compound 257] as the compound, how does the pEC50 [1] read?
A: Its pEC50 is 8.52.

Q: What about the solubility at 24 h (physchem; [3]) of the same compound?
A: Its solubility at 24 h is 164 µg/mL (≈ 258 µM).

Q: And the solubility at 24 h (physchem; [4])?
A: The solubility at 24 h was 88.2 µg/mL (≈ 139 µM).

Q: What about the solubility at 24 h (physchem; [5]) of the same compound?
A: The solubility at 24 h was 59 µg/mL (≈ 92.7 µM).

Q: And the “Metabolic stability (Qh %)” value [2]?
A: Its value is 85%.

Q: With `CCO[C@@H]1CN(c2cccc(-c3cccc(Cl)c3OCc3cc(C)c4c(c3)CCN(C3CCOCC3)C4)n2)CC[C@@H]1C(=O)O` [Compound 259] as the compound, how does the pEC50 [1] read?
A: Its pEC50 is 7.19.

Q: And the solubility at 24 h (physchem; [3])?
A: Its solubility at 24 h is 150 µg/mL (≈ 241 µM).

Q: What about the solubility at 24 h (physchem; [4]) of the same compound?
A: Its solubility at 24 h is 86.8 µg/mL (≈ 140 µM).

Q: And the solubility at 24 h (physchem; [5])?
A: The solubility at 24 h was 58 µg/mL (≈ 93.5 µM).

Q: And the “Metabolic stability (Qh %)” value [2]?
A: Its value is 44%.

Q: What does the source list for `CCO[C@@H]1CN(c2cccc(-c3cccc(Cl)c3OCc3cc4c(c(OC)c3)CN(C3CCOCC3)CC4)n2)CC[C@@H]1C(=O)O` [Compound 260]?
A: pEC50 [1]: 7.25; solubility at 24 h (physchem; [3]): 148 µg/mL (≈ 233 µM); solubility at 24 h (physchem; [4]): 83.9 µg/mL (≈ 132 µM); solubility at 24 h (physchem; [5]): 58.3 µg/mL (≈ 91.6 µM); Metabolic stability (Qh %), % hepatic blood flow [2]: 40%
